Values after ≈ are worked out from the molar mass of the structure shown. Read-outs that look alike come from different tables or passages of the source.
Experiments:
[1] = test system: E. coli NCTC 13353 (CTX-M15, OXA-1); assay: Antibacterial activity, MIC by agar dilution (CLSI); type: cell-based; details: Escherichia coli, NCTC13353, Table 2; E. Coli NCTC 13353 (CTX-M15, OXA-1); read-out: MIC
In short: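 CLSI agar dilution on Mueller Hinton agar containing doubling compound dilutions, inoculated at about 10^4 CFU/spot from fresh cultures. Plates were incubated 18 h at 37 °C in ambient air before growth scoring. MIC is reported in mcg/ml.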

[2] = test system: K. pneumoniae H521 (KPC, SHV, TEM); assay: as above; type: cell-based; details: Klebsiella pneumoniae, Table 2; K. pneumoniae H521 (KPC, SHV, TEM); read-out: MIC
In short: (§1)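 Agar dilution per CLSI on Mueller Hinton agar with doubling compound dilutions, about 10^4 CFU/spot by multipoint inoculator. Plates incubated 16-20 h at 35±2° C in ambient air; procedure also gives 37° C for 18 h. MIC (mcg/ml) scored as growth or no growth.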

[3] = test system: K. pneomoniae S48 (NDM, SHV, TEM); assay: as above; type: cell-based, K. pneumoniae; details: Klebsiella pneumoniae; Table 2; K. pneomoniae S48 (NDM, SHV, TEM); read-out: MIC
In short: as §1

[4] = molecular target: T1, Class A beta-lactamase, K. pneumoniae ATCC 700603 (SHV 18) (Klebsiella pneumoniae, UniProt P0AD64, E235K/G234A/R39S); assay: biochemical
T1 construct: preincubated mixture of crude enzyme and the agents; endogenous in cells; host or cells: K. pneumoniae ATCC 700603
T1 sequence (P0AD64 22-286 R39S/G234A/E235K): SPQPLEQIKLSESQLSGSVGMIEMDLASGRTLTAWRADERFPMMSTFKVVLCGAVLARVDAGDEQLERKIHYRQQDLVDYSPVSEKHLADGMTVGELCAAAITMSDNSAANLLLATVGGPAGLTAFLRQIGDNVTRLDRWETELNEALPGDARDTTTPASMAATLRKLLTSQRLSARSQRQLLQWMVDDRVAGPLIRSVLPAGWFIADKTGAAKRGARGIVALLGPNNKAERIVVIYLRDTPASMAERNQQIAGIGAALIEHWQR
In short: (§2)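 Crude enzyme preincubated with inhibitor 10 min at 37 °C, then nitrocefin (100 uM) added for 5 min. Absorbance read at 485 nm; IC50 obtained from sigmoidal dose-response fit of absorbance versus concentration.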

[5] = test system: T2, Class C beta-lactamase, E. coli M50 (CMY/DHA); type: biochemical; details: read-out: Beta-lactamase enzyme inhibition IC50
T2 construct: no borders, tags or purification printed
Method: Determination of enzyme inhibition activity: Concentration of the inhibitor required to inhibit 50% of enzymatic activity was measured by adding a chromogenic substrate, Nitrocefin (100 uM, 5 min) to the preincubated mixture of crude enzyme and the agents (37° C., 10 min). Absorbance was measured at 485 nm by UV-spectrophotometer. The IC50 was calculated by plotting absorbance against concentration through Sigmoidal dose response curve using Graph Pad software.
The enzyme inhibition was expressed as IC50.

[6] = molecular target: T3, Class D beta-lactamase, A. baumannii NCTC 13301 (OXA 23) (Acinetobacter baumannii, UniProt Q9L4P2); assay: Beta-lactamase enzyme inhibition (nitrocefin, crude enzyme); type: biochemical; details: Class D A. baumannii NCTC 13301 (OXA 23); read-out: Beta-lactamase enzyme inhibition IC50
T3 construct: preincubated mixture of crude enzyme and the agents; endogenous in cells; host or cells: A. baumannii NCTC 13301
T3 sequence (Q9L4P2 18-273): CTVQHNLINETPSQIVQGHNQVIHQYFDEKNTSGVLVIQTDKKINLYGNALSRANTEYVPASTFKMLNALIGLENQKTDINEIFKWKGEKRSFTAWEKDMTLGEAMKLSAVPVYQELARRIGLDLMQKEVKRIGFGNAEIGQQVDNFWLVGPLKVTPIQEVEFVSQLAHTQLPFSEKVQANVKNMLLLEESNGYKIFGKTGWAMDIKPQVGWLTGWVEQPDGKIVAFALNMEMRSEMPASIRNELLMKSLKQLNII
In short: as §2

E. coli M50 = assay: Zone of inhibition, compound alone and in combination with ceftazidime (agar well); type: cell-based; details: for zone of inhibition at 0.5 µg/disc: 0.5 μg/well; for zone of inhibition at 1 µg/disc: 1 μg/well; for Diameter of Zone of Inhibition: E. coli M50
Method: (§3) Determination of antibacterial activity of combinations according to invention: In a typical experiment, two sets of plates containing growth media (Molten Mueller Hilton Agar) and bacterial strains were prepared. One set of plates was taken as control (without ceftazidime) and other set contained ceftazidime. The media was allowed to solidify and wells were punched later. A two-fold serial dilution range of each of the compounds according to invention was prepared and 50 μl of each of the dilution was added into the punched well. […] The Table 5 provides the antibacterial activity of the combination comprising compounds according to invention and ceftazidime.

E. coli NCTC 13353 = assay: as above; type: cell-based; details: for zone of inhibition at 0.25 µg/disc / zone of inhibition at 0.5 µg/disc / zone of inhibition at 1 µg/disc / zone of inhibition at […]: Escherichia coli, NCTC13353, E. coli NCTC 13353, read-out: Diameter of Zone of Inhibition; for zone of inhibition at 0.5 µg/disc: 0.5 μg/well; for zone of inhibition at 1 µg/disc: 1 μg/well
Method: as §3

[7] = Escherichia coli, M50, E. coli M50, Compound + Ceftazidime (10 μg/ml), 0.25 μg/well, read-out: Diameter of Zone of Inhibition
[8] = Escherichia coli, M50, E. coli M50, Compound + Ceftazidime (10 μg/ml), read-out: Diameter of Zone of Inhibition
[9] = Escherichia coli, M50, E. coli M50, Compound alone, read-out: Diameter of Zone of Inhibition
[10] = Compound + Ceftazidime (10 μg/ml), 0.25 μg/well
[11] = Compound + Ceftazidime (10 μg/ml)

Structure (SMILES) | MIC [1] | MIC [2] | MIC [3] | IC50 [4] | IC50 [5] | IC50 [6] | zone of inhibition at 0.25 µg/disc (E. coli M50; [7]) | zone of inhibition at 0.5 µg/disc (E. coli M50; [8]) | zone of inhibition at 1 µg/disc (E. coli M50; [8]) | zone of inhibition at 0.5 µg/disc (E. coli M50; [9]) | zone of inhibition at 1 µg/disc (E. coli M50; [9]) | zone of inhibition at 0.25 µg/disc (E. coli NCTC 13353; [10]) | zone of inhibition at 0.5 µg/disc (E. coli NCTC 13353; [11]) | zone of inhibition at 1 µg/disc (E. coli NCTC 13353; [11]) | zone of inhibition at […] (E. coli NCTC 13353; [11]) | zone of inhibition at 0.5 µg/disc (E. coli NCTC 13353; Compound alone) | zone of inhibition at 1 µg/disc (E. coli NCTC 13353; Compound alone) | further results
NCc1ccc(CC(=O)NNC(=O)[C@@H]2CC[C@@H]3CN2C(=O)N3OS(=O)(=O)O)cc1 [Example 12, (2S,5R)-sulfuric acid mono-[2-(N′-(4-aminomethyl-phenyl-acetyl)-hydrazinocarbonyl)-7-oxo-1,6-diaza-bicyclo[3.2.1]oct-6-yl]ester] | 0.25 µg/mL (≈ 0.585 µM) | 0.25 µg/mL (≈ 0.585 µM) | 0.25 µg/mL (≈ 0.585 µM) | 144 nM | 13 nM | 539 nM | 19 mm | 21 mm | 23 mm | 18 mm | 19.5 mm | 22 mm | 26 mm | 29 mm | 19 mm | 17 mm | 19 mm | zone of inhibition at […] (E. coli M50; Escherichia coli, M50, E. coli M50, Compound + Ceftazidime (10 μg/ml), […], read-out: Diameter of Zone of Inhibition): 16 mm; zone of inhibition at 0.25 µg/disc (E. coli M50; Escherichia coli, M50, E. coli M50, Compound alone, 0.25 μg/well, read-out: Diameter of Zone of Inhibition): 15 mm; zone of inhibition at 0.25 µg/disc (E. coli NCTC 13353; Compound alone, 0.25 μg/well): 15.5 mm
C[C@H](N)C(=O)Oc1ccc(CC(=O)NNC(=O)[C@@H]2CC[C@@H]3CN2C(=O)N3OS(=O)(=O)O)cc1 [Example 23, (S)-2-amino-propionic acid 4-{2-oxo-2-[N′-((2S,5R)-7-oxo-6-sulphooxy-1,6-diaza-bicyclo[3.2.1]octane-2-carbonyl)-hydrazino]ethyl}-phenyl ester] | 0.5 µg/mL (≈ 1.03 µM) | 2 µg/mL (≈ 4.12 µM) | 0.5 µg/mL (≈ 1.03 µM) | 3 nM | 23 nM | 240 nM | – | – | – | – | – | – | – | – | – | – | – | –
C[C@@H](N)COc1ccccc1CC(=O)NNC(=O)[C@@H]1CC[C@@H]2CN1C(=O)N2OS(=O)(=O)O [Example 3, (2S,5R)-Sulfuric Acid mono-[2-(N′-{2-[2-((R)-2-amino-propoxy)-phenyl]-acetyl}-hydrazinocarbonyl)-7-oxo-1,6-diaza-bicyclo[3.2.1]oct-6-yl]ester] | 1 µg/mL (≈ 2.12 µM) | 2 µg/mL (≈ 4.24 µM) | 1 µg/mL (≈ 2.12 µM) | 80 nM | 73 nM | 2020 nM | 10.5 mm | 14 mm | 17 mm | 11.5 mm | 14 mm | 14.5 mm | 17.5 mm | 21.5 mm | 11 mm | 10 mm | 13 mm | Diameter of Zone of Inhibition (E. coli M50; Compound + Ceftazidime (10 μg/ml), […]): No growth; Diameter of Zone of Inhibition (E. coli M50; Compound alone, 0.25 μg/well): No growth; Diameter of Zone of Inhibition (E. coli NCTC 13353; E. coli NCTC 13353, Compound alone, 0.25 μg/well): No growth
C[C@H](N)COc1ccccc1CC(=O)NNC(=O)[C@@H]1CC[C@@H]2CN1C(=O)N2OS(=O)(=O)O [Example 40, (2S,5R)-sulfuric acid mono-[2-(N′-{2-[2-((S)-2-amino-propoxy)-phenyl]-acetyl}-hydrazinocarbonyl)-7-oxo-1,6-diaza-bicyclo[3.2.1]oct-6-yl]ester] | 2 µg/mL (≈ 4.24 µM) | 2 µg/mL (≈ 4.24 µM) | 2 µg/mL (≈ 4.24 µM) | 110 nM | 99 nM | 1570 nM | – | – | – | – | – | – | – | – | – | – | – | –
O=C(Cc1ccc(O[C@H]2CCNC2)cc1F)NNC(=O)[C@@H]1CC[C@@H]2CN1C(=O)N2OS(=O)(=O)O [Example 47, (2S,5R)-sulfuric acid mono-[2-(N′-{2-[2-fluoro-4-((S)-pyrrolidin-3-oxy)-phenyl]-acetyl}-hydrazinocarbonyl)-7-oxo-1,6-diaza-bicyclo[3.2.1]oct-6-yl]ester] | 1 µg/mL (≈ 1.99 µM) | 2 µg/mL (≈ 3.99 µM) | 0.5 µg/mL (≈ 0.997 µM) | 15.1 nM | 77 nM | 842 nM | – | – | – | – | – | – | – | – | – | – | – | –

Source: patent publication US9822115B2, “Nitrogen containing compounds and their use as antibacterial agents” (WOCKHARDT LIMITED, priority 2014, dated 2017)
